Experimental data taken from US5446056A, “Isoxazoline compounds useful as fibrinogen receptor antagonists” (The Du Pont Merck Pharmaceutical Company, priority 1994, dated 1995).

System: human platelet rich plasma
Experiment: Platelet aggregation assay (platelet rich plasma, PRP)
Type: cell-based
Details: concentration which inhibits platelet aggregation by 50% relative to control, ester prodrugs preincubated with porcine liver esterase, ADP-induced
Experimental: Platelet Aggregation Assay: Venous blood was obtained from the arm of a healthy human donor who was drug-free and aspirin-free for at least two weeks prior to blood collection. Blood was collected into 10 mL citrated Vacutainer tubes. The blood was centrifuged for 15 minutes at 150×g at room temperature, and platelet-rich plasma (PRP) was removed. The remaining blood was centrifuged for 15 minutes at 1500×g at room temperature, and platelet-poor plasma (PPP) was removed. Samples were assayed on a aggregometer (PAP-4 Platelet Aggregation Profiler), using PPP as the blank (100% transmittance). 200 μL of PRP was added to each micro test tube, and transmittance was set to 0%. 20 μL of various agonists (ADP, collagen, arachidonate, epinephrine, thrombin) were added to each tube, and the aggregation profiles were plotted (% transmittance versus time). The results are expressed as % inhibition of agonist-induced platelet aggregation. […] Percent inhibition is calculated using percent aggregation in the presence of the test compound divided by percent aggregation of control, times 100. […]
Platelet Aggregation Assay; Venous blood was obtained from the arm of a healthy human donor who was drug-free and aspirin-free for at least two weeks prior to blood collection. […] The results are expressed as % inhibition of agonist-induced platelet aggregation. […]

CCNC(=N)c1ccc(C2=NOC(CC(=O)NCCC(=O)O)C2)cc1 (racemic) [Example 23, 5(R,S)-3-[3-(4-N-ethylamidinophenyl)isoxazolin-5-ylacetyl]aminopropanoic acid]
IC50: < 10 µM
